Measurements from publication PMC11605156, “Triterpenoids from Ganoderma lucidum inhibit cytochrome P450 enzymes interfering with the metabolic process of specific clinical drugs” (Frontiers in Pharmacology, 2024).

Key:
[1] = in vivo; conditions: rat
Experimental: SD rats (Male, weighing 220 g ± 20 g) were divided into a dichloromethane administration group and a control group with 6 rats in each group. Both groups were given probe substrate drugs by gavage. […] 200 μL blood samples were taken from the rat jugular vein at 0.167, 0.333, 0.5, 0.75, 1, 2, 3, 4, 6, 8, 10, and 12 h after the administration of the probe substrate. After precipitation of proteins by with 600 μL acetonitrile via centrifugation […] at 4°C at 3,500 rpm for 10 min. The supernatant was detected using liquid chromatography-tandem mass spectrometry (LC-MS/MS). The mass spectrometry information of the probe drug is shown in Supplementary Table S3. Animal experiments in this study were approved by the Animal Ethics Committee of the Dalian Medical University.

[2] = biological target: T1, CYP1A2 (Homo sapiens, UniProt P05177); assay: CYP1A2 inhibition, probe/drug metabolism in human liver microsomes (LC-MS/MS); conditions: for activity at 30 min: Residual activity (%) CYP1A2, HLM 0.5 mg/mL; for activity at 30 min / Residual activity (%) CYP1A2: phenacetin 40 μM, 30 min; for Residual activity (%) CYP1A2: HLM 0.5 mg/mL
T1 sequence (P05177 1-516): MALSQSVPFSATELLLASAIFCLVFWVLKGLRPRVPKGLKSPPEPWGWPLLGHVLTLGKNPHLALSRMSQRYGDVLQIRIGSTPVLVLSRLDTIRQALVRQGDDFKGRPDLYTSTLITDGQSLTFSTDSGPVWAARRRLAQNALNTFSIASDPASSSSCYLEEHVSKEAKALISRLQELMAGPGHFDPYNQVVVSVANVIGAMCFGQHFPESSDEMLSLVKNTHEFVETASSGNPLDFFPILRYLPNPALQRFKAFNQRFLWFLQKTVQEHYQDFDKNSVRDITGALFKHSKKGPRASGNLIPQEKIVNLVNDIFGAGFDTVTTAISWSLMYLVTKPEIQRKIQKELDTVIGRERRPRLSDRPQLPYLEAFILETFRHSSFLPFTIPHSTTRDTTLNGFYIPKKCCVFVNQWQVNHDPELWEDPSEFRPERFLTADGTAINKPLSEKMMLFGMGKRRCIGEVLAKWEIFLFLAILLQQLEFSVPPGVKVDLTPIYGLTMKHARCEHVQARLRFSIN
Experimental: (§1) The total volume of the in vitro metabolic incubation system is 200 μL. The probe substrate concentration in the system is shown in Supplementary Table S1. […] The reaction sample was preheated in a constant temperature mixer at 37°C. Then NADP^+ was added to the system to initiate the reaction. The reaction time is 30 min, and 100 μL acetonitrile will be added on time to quickly terminate the reaction, followed by centrifugation at 4°C and 20,000 g for 20 min. The supernatant was analyzed using liquid chromatography tandem mass spectrometry (LC-MS/MS), and the activity of CYP enzymes was evaluated by the generation of probe metabolites. The mass spectrometry information of probe substrates is shown in Supplementary Table S3.
(§2) The isolated triterpenoids (1–66) were used to establish a compounds library. The inhibitory effects of 66 triterpenoids from G. lucidum on seven subtypes of CYP enzymes (CYP1A2, 2A6, 2D6, 2B6, 2C9, 2C19, 3A4) were evaluated followed the above-mentioned experimental procedures.
(§3) For 16 clinical drugs metabolized by CYP enzymes, potential DDI studies were conducted on triterpenoids (6, 25) of G. lucidum, and IC50 values were measured.
(§4) Clinical drugs: Phenacetin, melatonin, clozapine and riluzole are metabolized by CYP1A2. Bupropion, artemisinin, efavirenz and sertraline are metabolized by CYP2B6. Diclofenac, valsartan, glimepiride and glibenclamide are metabolized by CYP2C9. Midazolam, imatinib, simvastatin and diltiazem are metabolized by CYP3A4.
(§5) Table S1. The information of probes for CYPs activity assay
(§6) Table S2. Information of clinical drugs

[3] = biological target: CYP2D6 (Homo sapiens, UniProt P10635); assay: CYP2D6 inhibition, dextromethorphan probe in human liver microsomes; conditions: for activity at 30 min: human, human liver microsomes, pH 7.4, probe dextromethorphan 5 μM, Residual activity (%) CYP2D6, HLM 0.5 mg/mL; for Residual activity (%) CYP2D6: HLM 0.5 mg/mL, dextromethorphan 5 μM, 30 min
Chain of CYP2D6 (P10635 whole entry): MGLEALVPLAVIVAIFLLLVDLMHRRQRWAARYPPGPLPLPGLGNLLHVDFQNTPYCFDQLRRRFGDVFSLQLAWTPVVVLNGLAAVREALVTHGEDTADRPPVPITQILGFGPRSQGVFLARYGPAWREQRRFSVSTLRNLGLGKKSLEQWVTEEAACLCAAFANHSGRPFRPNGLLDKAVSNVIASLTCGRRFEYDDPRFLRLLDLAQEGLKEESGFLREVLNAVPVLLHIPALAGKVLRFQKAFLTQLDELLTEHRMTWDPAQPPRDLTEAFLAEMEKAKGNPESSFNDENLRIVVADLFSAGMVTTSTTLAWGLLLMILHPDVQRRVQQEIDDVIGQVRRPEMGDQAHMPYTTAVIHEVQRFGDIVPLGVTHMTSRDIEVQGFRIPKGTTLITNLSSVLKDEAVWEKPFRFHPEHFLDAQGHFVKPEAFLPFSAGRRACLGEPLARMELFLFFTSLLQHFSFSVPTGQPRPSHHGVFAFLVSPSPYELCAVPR
Experimental: as §1, §2, §5

[4] = biological target: CYP3A4 (Homo sapiens, UniProt P08684); assay: CYP3A4 inhibition, probe/drug metabolism in human liver microsomes; conditions: human, human liver microsomes, pH 7.4, probe midazolam 5 μM, Residual activity (%) CYP3A4, HLM 0.5 mg/mL, midazolam 5 μM, 30 min
Chain of CYP3A4 (P08684 whole entry): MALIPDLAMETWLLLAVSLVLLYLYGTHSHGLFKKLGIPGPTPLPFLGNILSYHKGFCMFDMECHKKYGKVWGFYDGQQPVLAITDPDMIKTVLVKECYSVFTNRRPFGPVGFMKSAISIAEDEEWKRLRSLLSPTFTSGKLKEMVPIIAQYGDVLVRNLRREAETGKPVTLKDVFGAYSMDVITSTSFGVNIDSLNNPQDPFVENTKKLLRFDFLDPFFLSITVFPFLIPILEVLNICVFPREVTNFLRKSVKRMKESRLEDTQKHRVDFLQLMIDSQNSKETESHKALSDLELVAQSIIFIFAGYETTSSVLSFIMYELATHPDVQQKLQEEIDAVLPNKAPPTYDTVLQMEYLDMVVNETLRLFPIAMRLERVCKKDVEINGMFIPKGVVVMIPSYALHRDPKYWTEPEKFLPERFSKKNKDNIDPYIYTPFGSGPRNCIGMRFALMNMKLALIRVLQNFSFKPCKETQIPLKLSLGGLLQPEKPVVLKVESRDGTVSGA
Experimental: as §1, §2, §3, §4, §5, §6

[5] = biological target: T2, CYP2A6 (Homo sapiens, UniProt P11509); assay: CYP2A6 inhibition, coumarin probe in human liver microsomes; conditions: for activity at 30 min: human, human liver microsomes, pH 7.4, probe coumarin 2 μM, Residual activity (%) CYP2A6, HLM 0.5 mg/mL
T2 sequence (P11509 1-494): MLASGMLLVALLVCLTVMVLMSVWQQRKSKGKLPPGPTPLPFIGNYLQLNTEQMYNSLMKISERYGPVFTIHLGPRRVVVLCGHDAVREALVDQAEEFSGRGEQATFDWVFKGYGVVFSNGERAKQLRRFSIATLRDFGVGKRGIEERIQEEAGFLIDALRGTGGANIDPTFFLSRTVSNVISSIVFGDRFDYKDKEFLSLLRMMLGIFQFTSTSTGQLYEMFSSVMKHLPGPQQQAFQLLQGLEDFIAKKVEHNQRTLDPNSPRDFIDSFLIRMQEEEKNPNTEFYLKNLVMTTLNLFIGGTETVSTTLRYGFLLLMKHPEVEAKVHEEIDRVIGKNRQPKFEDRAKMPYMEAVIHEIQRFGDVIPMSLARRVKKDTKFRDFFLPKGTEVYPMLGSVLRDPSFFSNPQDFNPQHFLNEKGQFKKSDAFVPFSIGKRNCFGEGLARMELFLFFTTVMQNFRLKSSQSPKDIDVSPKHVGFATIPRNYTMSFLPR
Experimental: as §1, §2, §5

[6] = biological target: T3, CYP2B6 (Homo sapiens, UniProt P20813); assay: CYP2B6 inhibition, probe/drug metabolism in human liver microsomes; conditions: bupropion 75 μM, 30 min; for activity at 30 min: human, human liver microsomes, pH 7.4, probe bupropion 75 μM, Residual activity (%) CYP2B6, HLM 0.5 mg/mL
T3 sequence (P20813 1-491): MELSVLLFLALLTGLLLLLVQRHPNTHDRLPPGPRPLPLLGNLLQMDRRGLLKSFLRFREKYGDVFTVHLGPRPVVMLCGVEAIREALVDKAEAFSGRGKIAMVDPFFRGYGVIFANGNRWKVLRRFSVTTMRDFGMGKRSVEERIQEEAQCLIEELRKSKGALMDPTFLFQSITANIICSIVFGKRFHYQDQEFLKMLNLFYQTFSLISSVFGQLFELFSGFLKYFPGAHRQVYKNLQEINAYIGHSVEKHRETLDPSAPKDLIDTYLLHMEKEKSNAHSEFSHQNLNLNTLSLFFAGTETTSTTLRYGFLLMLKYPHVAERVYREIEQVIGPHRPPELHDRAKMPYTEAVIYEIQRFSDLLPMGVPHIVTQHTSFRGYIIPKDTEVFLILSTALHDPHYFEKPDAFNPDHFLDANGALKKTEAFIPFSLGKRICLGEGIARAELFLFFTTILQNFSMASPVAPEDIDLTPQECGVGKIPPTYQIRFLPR
Experimental: as §1, §2, §3, §4, §5, §6

[7] = biological target: CYP2C9 (Homo sapiens, UniProt P11712); assay: CYP2C9 inhibition, probe/drug metabolism in human liver microsomes; conditions: diclofenac 4 μM, 30 min; for activity at 30 min: human, human liver microsomes, pH 7.4, probe diclofenac 4 μM, Residual activity (%) CYP2C9, HLM 0.5 mg/mL
Chain of CYP2C9 (P11712 whole entry): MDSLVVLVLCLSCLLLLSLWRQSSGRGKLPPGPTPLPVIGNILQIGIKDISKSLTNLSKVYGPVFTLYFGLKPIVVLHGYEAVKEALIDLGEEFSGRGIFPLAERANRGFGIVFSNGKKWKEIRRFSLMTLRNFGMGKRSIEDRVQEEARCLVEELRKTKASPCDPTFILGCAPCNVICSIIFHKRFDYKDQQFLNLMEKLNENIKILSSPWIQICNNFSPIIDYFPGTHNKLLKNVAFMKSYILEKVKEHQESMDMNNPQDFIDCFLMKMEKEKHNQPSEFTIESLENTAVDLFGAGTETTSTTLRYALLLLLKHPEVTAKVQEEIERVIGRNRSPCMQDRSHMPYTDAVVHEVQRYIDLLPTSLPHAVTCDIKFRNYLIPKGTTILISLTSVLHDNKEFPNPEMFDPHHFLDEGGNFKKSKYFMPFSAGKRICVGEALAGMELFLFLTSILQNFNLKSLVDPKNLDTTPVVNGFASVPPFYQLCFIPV
Experimental: as §1, §2, §3, §4, §5, §6

[8] = biological target: CYP2C19 (Homo sapiens, UniProt P33261); assay: CYP2C19 inhibition, S-mephenytoin probe in human liver microsomes; conditions: S-mephenytoin 50 μM, 30 min; for activity at 30 min: human, human liver microsomes, pH 7.4, probe S-mephenytoin 50 μM, Residual activity (%) CYP2C19, HLM 0.5 mg/mL
Chain of CYP2C19 (P33261 whole entry): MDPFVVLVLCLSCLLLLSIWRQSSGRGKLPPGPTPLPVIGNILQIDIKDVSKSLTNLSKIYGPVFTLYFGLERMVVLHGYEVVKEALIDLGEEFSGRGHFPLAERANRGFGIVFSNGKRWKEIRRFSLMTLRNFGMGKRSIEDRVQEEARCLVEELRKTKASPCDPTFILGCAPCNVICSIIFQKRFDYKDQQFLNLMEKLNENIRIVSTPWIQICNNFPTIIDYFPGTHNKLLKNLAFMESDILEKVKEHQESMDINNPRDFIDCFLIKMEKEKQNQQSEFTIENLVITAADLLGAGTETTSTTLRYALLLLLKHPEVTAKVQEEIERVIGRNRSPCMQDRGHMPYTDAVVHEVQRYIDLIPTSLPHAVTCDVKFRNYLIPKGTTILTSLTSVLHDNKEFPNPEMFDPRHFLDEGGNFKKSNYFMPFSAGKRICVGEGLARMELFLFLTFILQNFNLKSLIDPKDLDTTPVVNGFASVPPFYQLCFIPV
Experimental: as §1, §2, §5

[9] = IC50 against CYP 1A2, substrate phenacetin 40 μM, HLM
[10] = human, human liver microsomes, pH 7.4, probe phenacetin 40 μM
[11] = gavage, drug alone (control group), n = 6

| Structure (SMILES) | AUM ([1]; male, SD, in vivo) | Cl_F_ ([1]; male, SD, in vivo) | AUC(0-inf) ([1]; male, SD, in vivo, po) [ng·h/mL] | AUC(0-t) ([1]; male, SD, in vivo, po) [ng·h/mL] | Cmax ([1]; male, SD, in vivo, po) [ng/mL] | Tmax ([1]; male, SD, in vivo, po) [min] | Vz_F ([1]; male, SD, in vivo, po) | IC50 [2, 9] [µM] | activity at 30 min [2, 10] [%] | activity at 30 min [3] [%] | activity at 30 min [4] [%] | activity at 30 min [5] [%] | activity at 30 min [6] [%] | activity at 30 min [7] [%] | activity at 30 min [8] [%] | also measured |
| --- | --- | --- | --- | --- | --- | --- | --- | --- | --- | --- | --- | --- | --- | --- | --- | --- |
| CC(NC(C)(C)C)C(=O)c1cccc(Cl)c1 (stereo not drawn) [Bup, bupropion] | 15,378.075 ± 3,089.500 h*ng/mL | 3,954.386 ± 375.228 mL/h/kg | 5090 | 4950 | 1890 ± 154 | 25 ± 7.74 | 10,405.594 ± 1,602.189 mL/kg | – | – | – | – | – | – | – | – | – |
| CC(=CC(=O)CC(C)C(=O)O)C1CC(=O)C2(C)C3=C(C(=O)CC12C)C1(C)CCC(=O)C(C)(CO)C1CC3O (stereo not drawn) [Compound 1] | – | – | – | – | – | – | – | 10.1 ± 0.23 | 29.1 ± 1.9 | 82.4 ± 1.5 | 84.3 ± 7.26 | 79.5 ± 3.07 | 86.9 ± 5.76 | 91.82 ± 0.87 | 65 ± 6 | – |
| CC(CC(=O)CC(C)C1CC(=O)C2(C)C3=C(C(=O)CC12C)C1(C)CCC(O)C(C)(CO)C1CC3O)C(=O)O (stereo not drawn) [Compound 2] | – | – | – | – | – | – | – | 16 ± 4.05 | 35.4 ± 3.33 | 79.7 ± 8.99 | 79.6 ± 5.54 | 78.38 ± 0.16 | 79.86 ± 0.32 | 87.1 ± 3.47 | 62.77 ± 0.26 | – |
| CC(CC(=O)CC(C)C1CC(=O)C2(C)C3=C(C(=O)C(O)C12C)C1(C)CCC(=O)C(C)(CO)C1CC3O)C(=O)O (stereo not drawn) [Compound 3] | – | – | – | – | – | – | – | 14 ± 1.73 | 33 ± 4.08 | 76.5 ± 4.49 | 60.3 ± 3.06 | 79.9 ± 0.97 | 75.3 ± 4.16 | 87.3 ± 6.36 | 63.6 ± 7.83 | – |
| CC(CC(=O)CC(C)C1CC(O)C2(C)C3=C(C(=O)CC12C)C1(C)CCC(=O)C(C)(C)C1CC3=O)C(=O)O (stereo not drawn) [Compound 45] | – | – | – | – | – | – | – | 18.2 ± 1.33 | 48.2 ± 4.71 | 93.7 ± 8.49 | – | 90.1 ± 2.87 | 83 ± 3.05 | 73.5 ± 6.44 | 70.3 ± 4.05 | – |
| CC(CC(=O)CC(C)C1CC(=O)C2(C)C3=C(C(=O)CC12C)C1(C)CCC(O)C(C)(C)C1CC3=O)C(=O)O (stereo not drawn) [Compound 54] | – | – | – | – | – | – | – | – | – | – | – | 82.6 ± 2.79 | 84.1 ± 1.32 | 88.45 ± 0.51 | 88.3 ± 3.63 | Residual activity (%) CYP1A2 [2]: 47.09±3.09%; IC50 at 30 min ([2]; human, human liver microsomes, pH 7.4, probe phenacetin 40 μM, IC50 against CYP 1A2, substrate phenacetin 40 μM, HLM): 24.7 ± 3.38 µM; Residual activity (%) CYP2D6 [3]: 108.69±3.90% |
| CC(CC(=O)CC(C)C1CC(=O)C2(C)C3=C(C(=O)CC12C)C1(C)CCC(O)C(C)(C)C1CC3=O)C(=O)O (stereo not drawn) [Compound 55] | – | – | – | – | – | – | – | – | – | – | – | – | – | – | – | Residual activity (%) CYP1A2 [2]: 71.10±3.67%; Residual activity (%) CYP2D6 [3]: 86.79±5.16%; Residual activity (%) CYP2A6 ([5]; HLM 0.5 mg/mL, coumarin 2 μM, 30 min): 74.81±0.70%; Residual activity (%) CYP2B6 ([6]; HLM 0.5 mg/mL): 77.81±6.09%; Residual activity (%) CYP2C9 ([7]; HLM 0.5 mg/mL): 96.25±6.96%; Residual activity (%) CYP2C19 ([8]; HLM 0.5 mg/mL): 104.32±8.04% |
| O=C(O)Cc1ccccc1Nc1c(Cl)cccc1Cl [Dic, diclofenac] | 7,332.465 ± 1,560.101 h*ng/mL | 4,276.363 ± 388.068 mL/h/kg | 2350 | 2270 | 912 ± 68.1 | 17.5 ± 6.12 | 12,244.920 ± 1707.693 mL/kg | – | – | – | – | – | – | – | – | – |
| Cc1ncc2n1-c1ccc(Cl)cc1C(c1ccccc1F)=NC2 [MDZ, midazolam] | – | – | 2340 | 2300 | 1630 | 40 ± 7.74 | – | – | – | – | – | – | – | – | – | AUM [1, 11]: 4,197.381 ± 670.735 h*ng/mL; Cl_F_ [1, 11]: 4,313.217 ± 497.661 mL/h/kg; Vz_F [1, 11]: 8,995.776 ± 2,395.823 mL/kg |
| CCOc1ccc(NC(C)=O)cc1 [PHE, Phenacetin] | 692.744 ± 85.4782 ng·h/mL | 14,264.696 ± 912.942 mL/h/kg | 352 ± 22.6 | 342 ± 22.6 | 364 ± 38.1 | 37.5 ± 8.22 | 31,514.554 ± 6,298.860 mL/kg | – | – | – | – | – | – | – | – | – |
